Laboratory results: US8846699B2, “Quinazoline derivatives as a multiplex inhibitor and method for the preparation thereof” (Hanmi Pharm. Co., Ltd., priority 2005, dated 2014)

Legend:
[1] = tested on: Human Umbilical Vein Endothelial Cell (HUVEC); assay: Inhibitory effect on growth of human umbilical vein endothelial cell (HUVEC), MTS; assay type: cell-based; details: 10 ng/ml VEGF, absorbance 490 nm
VEGFR2 (KDR) = VEGFR2 (KDR) (Homo sapiens (Human), UniProt P35968); assay: VEGFR2 (KDR) enzyme assay, fluorescence polarization; assay type: biochemical; details: 5 μM ATP, poly(Glu, Tyr) substrate
Outline: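 Autophosphorylation read by fluorescence polarization: VEGFR2 (Proquinase) at 200 ng/10 μl with 5 μM ATP and 10 ng/ml poly(Glu,Tyr) 4:1, in 20 mM HEPES pH 7.4, 5 mM MgCl2, 2 mM MnCl2, 50 μM Na3VO4. Reaction 1 h at room temperature, EDTA stop, then anti-phosphotyrosine antibody/tracer for 30 min in the dark.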

EGFR1 (HER-1) = EGFR1 (HER-1) (Homo sapiens (Human), UniProt P00533); assay: EGFR1 (HER-1) enzyme assay, fluorescence polarization; assay type: biochemical; details: 100 μM ATP, poly(Glu, Tyr) substrate
[2] = tested on: skin cancer cell line, A431; assay: Inhibitory effect on growth of cancer cell line A431, SRB; assay type: cell-based; details: overexpressed EGFR1 (HER-1)
Outline: (§1)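 Cells were cultured in DMEM with 10% FBS. Compounds were applied at 10 μM with 10-fold serial dilution to 10^−4, DMSO <1%, for 72 h at 37 °C. Cells were then TCA-fixed and stained with 0.4% SRB, and absorbance was read at 570 nm after solubilisation in 10 mM Tris base.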

[3] = tested on: breast cancer cell line, SK-Br3; assay: Inhibitory effect on growth of cancer cell line SK-Br3, SRB; assay type: cell-based; details: overexpressed EGFR2 (HER-2)
Outline: as §1

[4] = tested on: colon and rectal cancer cell line, SW-620; assay: Inhibitory effect on growth of cancer cell line SW-620, SRB; assay type: cell-based; details: not having overexpressed EGFR and EGFR2
Outline: as §1

VEGFR2 (KDR), sequence (P35968 20-1356): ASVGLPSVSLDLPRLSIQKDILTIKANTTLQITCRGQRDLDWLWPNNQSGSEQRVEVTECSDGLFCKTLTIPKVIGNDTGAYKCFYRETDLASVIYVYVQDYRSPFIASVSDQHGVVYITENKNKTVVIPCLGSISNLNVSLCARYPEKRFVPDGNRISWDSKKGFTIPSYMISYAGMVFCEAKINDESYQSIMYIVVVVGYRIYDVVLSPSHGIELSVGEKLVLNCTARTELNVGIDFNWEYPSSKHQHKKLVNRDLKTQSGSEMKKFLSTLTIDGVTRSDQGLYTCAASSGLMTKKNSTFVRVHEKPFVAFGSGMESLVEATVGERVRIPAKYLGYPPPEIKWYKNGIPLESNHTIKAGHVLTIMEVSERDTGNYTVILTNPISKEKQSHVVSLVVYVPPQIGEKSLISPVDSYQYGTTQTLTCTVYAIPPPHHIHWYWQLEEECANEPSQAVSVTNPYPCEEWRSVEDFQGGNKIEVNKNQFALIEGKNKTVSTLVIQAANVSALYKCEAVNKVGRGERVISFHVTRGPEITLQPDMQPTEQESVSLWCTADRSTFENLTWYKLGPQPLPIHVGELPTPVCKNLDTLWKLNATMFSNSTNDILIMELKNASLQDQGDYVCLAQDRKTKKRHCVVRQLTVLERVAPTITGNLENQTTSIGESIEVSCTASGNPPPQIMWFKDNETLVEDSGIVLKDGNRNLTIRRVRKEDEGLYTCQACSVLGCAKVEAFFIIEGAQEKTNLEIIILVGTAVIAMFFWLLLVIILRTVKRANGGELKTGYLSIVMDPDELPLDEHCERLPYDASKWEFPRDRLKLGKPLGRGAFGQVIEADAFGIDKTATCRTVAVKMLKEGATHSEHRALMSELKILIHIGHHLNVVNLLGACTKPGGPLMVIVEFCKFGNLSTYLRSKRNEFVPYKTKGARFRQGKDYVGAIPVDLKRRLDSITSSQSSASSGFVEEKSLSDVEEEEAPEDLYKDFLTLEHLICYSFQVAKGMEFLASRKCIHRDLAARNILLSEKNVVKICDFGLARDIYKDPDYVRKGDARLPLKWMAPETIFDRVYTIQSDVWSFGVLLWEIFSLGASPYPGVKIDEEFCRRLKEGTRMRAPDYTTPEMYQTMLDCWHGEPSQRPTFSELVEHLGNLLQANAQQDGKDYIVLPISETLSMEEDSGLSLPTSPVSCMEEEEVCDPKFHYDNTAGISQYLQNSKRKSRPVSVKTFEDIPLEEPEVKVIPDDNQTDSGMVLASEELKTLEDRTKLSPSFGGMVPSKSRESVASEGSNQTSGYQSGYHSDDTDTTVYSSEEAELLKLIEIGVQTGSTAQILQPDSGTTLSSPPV

Row | IC50 (VEGFR2 (KDR)) [nM] | IC50 (EGFR1 (HER-1)) [nM] | IC50 ([2]; Homo sapiens, A-431, 72 h) [nM] | IC50 ([3]; Homo sapiens, SK-BR-3, 72 h) [nM] | IC50 ([4]; Homo sapiens, 72 h) [nM] | IC50 ([2]; 72 hours) [nM] | IC50 ([3]; 72 hours) [nM] | IC50 ([4]; 72 hours) [nM] | Molecule | IC50 ([1]; Homo sapiens, 96 h) [nM] | IC50 ([1]; 96 hours) [nM]
1 | 88 | 41 | 45 | 58 | 2630 |  |  |  | C=CC(=O)Nc1cc2c(Nc3ccc(Br)c(Cl)c3F)ncnc2cc1OCCNC(=O)CCO [Example 145, N-{4-(4-bromo-3-chloro-2-fluoro-phenylamino)-7-[2-(3-hydroxy-propionylamino)-ethoxy]-quinazolin-6-yl}-acrylamide] | 116 | 
2 | 125 | 21 |  |  |  | 11 | 103 | 10000 | N-{2-[6-acryloylamino-4-(4-bromo-2-fluoro-phenylamino)-quinazolin-7-yloxy]-ethyl}-4-dimethylamino-butylamide [Example 66] |  | 238
3 | 147 | 16 | 15 | 41 | 9560 |  |  |  | C=CC(=O)Nc1cc2c(Nc3ccc(Br)c(Cl)c3F)ncnc2cc1OCCNC(=O)CO [Example 149, N-{4-(4-bromo-3-chloro-2-fluoro-phenylamino)-7-[2-(2-hydroxy-acetylamino)-ethoxy]-quinazolin-6-yl}-acrylamide] | 204 | 
4 | 784 | 9 | 11 | 42 | 2430 |  |  |  | C=CC(=O)Nc1cc2c(Nc3cc(Cl)c(Br)cc3F)ncnc2cc1OCCNC(=O)CN(C)C [Example 135, N-{4-(4-bromo-5-chloro-2-fluoro-phenylamino)-7-[2-(2-dimethylamino-acetylamino)-ethoxy]-quinazolin-6-yl}-acrylamide] | 1310 | 
5 | 782 | 76 | 86 | 236 | 10000 |  |  |  | C=CC(=O)Nc1cc2c(Nc3ccc(Br)cc3F)ncnc2cc1OCCNC(=O)N1CCN(C(C)=O)CC1 [Example 95, 4-acetyl-piperazine-1-carboxylic acid {2-[6-acryloylamino-4-(4-bromo-2-fluoro-phenylamino)-quinazolin-7-yloxy]-ethyl}-amide] | 786 | 
6 | 278 | 21 | 22 | 242 | 9530 |  |  |  | C=CC(=O)Nc1cc2c(Nc3ccc(Br)c(Cl)c3F)ncnc2cc1OCCNC(=O)CCOC [Example 150, N-{4-(4-bromo-3-chloro-2-fluoro-phenylamino)-7-[2-(3-methoxy-propionylamino)-ethoxy]-quinazolin-6-yl}-acrylamide] | 358 | 
7 | 259 | 25 | 31 | 198 | 4550 |  |  |  | C=CC(=O)Nc1cc2c(Nc3ccc(Br)cc3F)ncnc2cc1OCCOC [Example 32, N-[4-(4-bromo-2-fluoro-phenylamino)-7-(2-methoxy-ethoxy)-quinazolin-6-yl]-acrylamide] | 350 | 
8 | 134 | 35 | 46 | 53 | 7860 |  |  |  | C=CC(=O)Nc1cc2c(Nc3ccc(Br)c(Cl)c3F)ncnc2cc1OCCNC(=O)N1CCOCC1 [Example 41, morpholine-4-carboxylic acid {2-[6-acryloylamino-4-(4-bromo-3-chloro-2-fluoro-phenylamino)-quinazolin-7-yloxy]-ethyl}-amide] | 221 | 
9 | 945 | 14 | 16 | 93 | 5260 |  |  |  | C=CC(=O)Nc1cc2c(Nc3ccc(Br)cc3F)ncnc2cc1OCCNC(=O)CCN1CCCCC1 [Example 104, N-{4-(4-bromo-2-fluoro-phenylamino)-7-[2-(3-piperidin-1-yl-propionylamino)-ethoxy]-quinazolin-6-yl}-acrylamide] | 855 | 
10 | 658 | 1950 | 2380 | 10000 | 2740 |  |  |  | C=CC(=O)Nc1cc2c(Nc3ccc(Br)cc3F)ncnc2cc1OCCNC(=O)C1CCCN1 (stereo not drawn) [Example 97, pyrrolidine-2-carboxylic acid {2-[6-acryloylamino-4-(4-bromo-2-fluoro-phenylamino)-quinazolin-7-yloxy]-ethyl}-amide] | 867 | 
11 | 372 | 251 | 321 | 658 | 726 |  |  |  | C=CC(=O)Nc1cc2c(Nc3ccc(Br)cc3F)ncnc2cc1OCCNC(=O)C(C)CN(C)C (stereo not drawn) [Example 74, N-{4-(4-bromo-2-fluoro-phenylamino)-7-[2-(3-dimethylamino-2-methyl-propionylamino)-ethoxy]-quinazolin-6-yl}-acrylamide] | 358 | 
12 | 954 | 125 | 116 | 395 | 5510 |  |  |  | C=CC(=O)Nc1cc2c(Nc3ccc(Br)cc3F)ncnc2cc1OCCNC(=O)C(C)N(C)C (stereo not drawn) [Example 58, N-{4-(4-bromo-2-fluoro-phenylamino)-7-[2-(2-dimethylamino-propionylamino)-ethoxy]-quinazolin-6-yl}-acrylamide] | 945 | 
13 | 77 | 36 | 41 | 211 | 10000 |  |  |  | C=CC(=O)Nc1cc2c(Nc3ccc(Br)cc3F)ncnc2cc1OC(C)CNC(C)=O (stereo not drawn) [Example 80, N-[7-(2-acetylamino-1-methyl-ethoxy)-4-(4-bromo-2-fluoro-phenylamino)-quinazolin-6-yl]-acrylamide] | 109 | 
14 | 79 | 98 | 137 | 198 | 9760 |  |  |  | C=CC(=O)Nc1cc2c(Nc3ccc(Br)c(Cl)c3F)ncnc2cc1OCCNC(=O)OC [Example 165, {2-[6-acryloylamino-4-(4-bromo-3-chloro-2-fluoro-phenylamino)-quinazolin-7-yloxy]-ethyl}-carbamic acid methylester] | 189 | 
15 | 54 | 7 | 6 | 12 | 721 |  |  |  | C=CC(=O)Nc1cc2c(Nc3ccc(Br)c(Cl)c3F)ncnc2cc1OCCNC(=O)CCN(CC)CC [Example 144, N-{4-(4-bromo-3-chloro-2-fluoro-phenylamino)-7-[2-(3-diethylamino-propionylamino)-ethoxy]-quinazolin-6-yl}-acrylamide] | 154 | 
16 | 462 | 26 | 42 | 103 | 10000 |  |  |  | C=CC(=O)Nc1cc2c(Nc3ccc(Br)cc3F)ncnc2cc1OCCNC(=O)CN(CC)CC [Example 167, N-{4-(4-bromo-2-fluoro-phenylamino)-7-[2-(2-diethylamino-acetylamino)-ethoxy]-quinazolin-6-yl}-acrylamide] | 108 | 
17 | 268 | 175 | 181 | 126 | 10000 |  |  |  | C=CC(=O)Nc1cc2c(Nc3c(F)cc(Br)cc3F)ncnc2cc1OCCNC(=O)CN(C)C [Example 123, N-[4-(4-bromo-2,6-difluorophenylamino)-7-{2-[2-(dimethylamino)-acetamido]-ethoxy}-quinazolin-6-yl]-acrylamide] | 328 | 
18 | 784 | 29 | 38 | 178 | 2760 |  |  |  | C=CC(=O)Nc1cc2c(Nc3ccc(Br)cc3F)ncnc2cc1OCC(C)NC(=O)NCCC (stereo not drawn) [Example 85, N-{4-(4-bromo-2-fluoro-phenylamino)-7-[2-(3-propyl-ureido)-propoxy]-quinazolin-6-yl}-acrylamide] | 964 | 
19 | 785 | 109 | 104 | 4340 | 3670 |  |  |  | C=CC(=O)Nc1cc2c(Nc3ccc(Br)cc3F)ncnc2cc1SCCNC(C)=O [Example 43, N-[7-(2-acetylamino-ethylsulfanyl)-4-(4-bromo-2-fluoro-phenylamino)-quinazolin-6-yl]-acrylamide] | 987 | 
20 | 38 | 8 | 12 | 32 | 10000 |  |  |  | C=CC(=O)Nc1cc2c(Nc3ccc(Br)c(Cl)c3F)ncnc2cc1OCCNC(=O)NCC [Example 168, N-{4-(4-bromo-3-chloro-2-fluoro-phenylamino)-7-[2-(3-ethyl-ureido)-ethoxy]-quinazolin-6-yl}-acrylamide] | 117 | 

Row | Molecule | IC50 (VEGFR2 (KDR)) [nM] | IC50 (EGFR1 (HER-1)) [nM] | IC50 ([2]; Homo sapiens, A-431, 72 h) [nM] | IC50 ([3]; Homo sapiens, SK-BR-3, 72 h) [nM] | IC50 ([4]; Homo sapiens, 72 h) [nM] | IC50 ([2]; 72 hours) [nM] | IC50 ([3]; 72 hours) [nM] | IC50 ([4]; 72 hours) [nM] | IC50 ([1]; Homo sapiens, 96 h) [nM] | IC50 ([1]; 96 hours) [nM]
21 | C=CC(=O)Nc1cc2c(Nc3ccc(Br)cc3F)ncnc2cc1OCCCCNC(C)=O [Example 20, N-[7-(4-acetylamino-butoxy)-4-(4-bromo-2-fluoro-phenylamino)-quinazolin-6-yl]-acrylamide] | 545 | 10 | 45 | 1100 | 10000 |  |  |  | 682 | 
